One assay deals with T1, ZAP70 C117 (P43403) (Homo sapiens, UniProt P43403).
T1 sequence (P43403 1-619): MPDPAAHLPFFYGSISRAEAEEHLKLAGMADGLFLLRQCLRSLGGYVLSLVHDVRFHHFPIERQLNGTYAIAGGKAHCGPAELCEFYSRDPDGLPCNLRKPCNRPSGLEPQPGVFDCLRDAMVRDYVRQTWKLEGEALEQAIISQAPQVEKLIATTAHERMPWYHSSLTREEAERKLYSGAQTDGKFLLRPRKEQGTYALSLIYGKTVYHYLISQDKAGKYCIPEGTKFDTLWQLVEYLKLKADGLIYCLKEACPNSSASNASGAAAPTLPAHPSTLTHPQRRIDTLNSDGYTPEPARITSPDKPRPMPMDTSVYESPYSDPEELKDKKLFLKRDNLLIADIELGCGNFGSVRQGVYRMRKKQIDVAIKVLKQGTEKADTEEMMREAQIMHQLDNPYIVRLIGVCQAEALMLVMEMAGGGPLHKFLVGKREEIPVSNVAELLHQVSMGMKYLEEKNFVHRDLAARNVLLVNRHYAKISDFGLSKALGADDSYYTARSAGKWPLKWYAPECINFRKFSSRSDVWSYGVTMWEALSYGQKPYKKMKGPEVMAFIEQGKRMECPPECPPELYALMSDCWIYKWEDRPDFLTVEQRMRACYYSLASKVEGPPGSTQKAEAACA
The experiment in a line: Competitive isoTOP-ABPP, cell lysates. It is filed as binding. Particulars: for isoTOP-ABPP ratio, P43403_C117: 500 μM, invitro; for isoTOP-ABPP ratio (reactivity profile), P43403_C117: 500 μm in-vitro ramos.

The next assay deals with T2, KDM3A C251 (Q9Y4C1) (Homo sapiens, UniProt Q9Y4C1).
T2 sequence (Q9Y4C1 1-1321): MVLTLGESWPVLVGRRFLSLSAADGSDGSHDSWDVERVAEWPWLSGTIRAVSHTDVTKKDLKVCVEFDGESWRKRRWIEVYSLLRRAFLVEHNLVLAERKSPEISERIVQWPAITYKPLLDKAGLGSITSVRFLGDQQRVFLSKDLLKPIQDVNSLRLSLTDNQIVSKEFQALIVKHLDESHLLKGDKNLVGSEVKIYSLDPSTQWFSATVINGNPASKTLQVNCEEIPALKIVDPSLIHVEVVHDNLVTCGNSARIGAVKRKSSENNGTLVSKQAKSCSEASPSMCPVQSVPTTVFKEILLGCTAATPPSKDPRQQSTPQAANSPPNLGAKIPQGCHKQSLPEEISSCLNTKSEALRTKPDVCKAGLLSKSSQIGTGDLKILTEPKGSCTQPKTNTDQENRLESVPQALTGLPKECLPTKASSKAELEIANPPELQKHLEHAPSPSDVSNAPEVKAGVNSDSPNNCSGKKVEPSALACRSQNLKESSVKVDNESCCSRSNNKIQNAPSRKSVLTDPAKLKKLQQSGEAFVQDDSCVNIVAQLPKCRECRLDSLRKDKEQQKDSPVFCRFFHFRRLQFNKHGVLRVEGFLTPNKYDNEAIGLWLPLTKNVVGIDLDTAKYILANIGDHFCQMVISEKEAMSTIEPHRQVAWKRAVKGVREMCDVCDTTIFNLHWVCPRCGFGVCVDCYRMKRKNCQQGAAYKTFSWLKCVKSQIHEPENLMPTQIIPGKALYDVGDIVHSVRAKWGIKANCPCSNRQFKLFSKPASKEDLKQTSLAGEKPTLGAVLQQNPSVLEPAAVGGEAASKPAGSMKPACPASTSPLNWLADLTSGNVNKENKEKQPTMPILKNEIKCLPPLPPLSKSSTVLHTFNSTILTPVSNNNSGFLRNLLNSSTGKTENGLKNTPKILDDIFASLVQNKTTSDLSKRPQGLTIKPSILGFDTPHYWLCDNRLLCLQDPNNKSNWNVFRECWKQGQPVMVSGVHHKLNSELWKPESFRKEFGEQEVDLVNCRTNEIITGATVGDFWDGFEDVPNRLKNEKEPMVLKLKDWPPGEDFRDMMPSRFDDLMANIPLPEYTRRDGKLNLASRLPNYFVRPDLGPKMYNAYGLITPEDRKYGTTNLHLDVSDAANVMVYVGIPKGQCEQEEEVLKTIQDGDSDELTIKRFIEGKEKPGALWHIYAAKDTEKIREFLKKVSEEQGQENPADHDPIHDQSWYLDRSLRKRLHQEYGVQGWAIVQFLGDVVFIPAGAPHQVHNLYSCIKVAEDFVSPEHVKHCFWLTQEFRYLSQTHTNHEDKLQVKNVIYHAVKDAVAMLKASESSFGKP
The experiment in a line: Competitive isoTOP-ABPP, cell lysates. It is filed as binding. The settings on record: for R value (DMSO/fragment): 500 μM.

As for `O=C(CCl)N1CCN(S(=O)(=O)c2ccccc2F)CC1` [compound 10], the “isoTOP-ABPP ratio, P43403_C117” value at ZAP70 C117 (P43403) (231) and at ZAP70 C117 (P43403) (ramos) was 20.0 each time.

Turning to `O=C(CCl)N1CCC(C(O)(c2ccccc2)c2ccccc2)CC1` [compound 20], the “isoTOP-ABPP ratio (reactivity profile), P43403_C117” value at ZAP70 C117 (P43403) is 20.0.

Turning to `O=C(CCl)NC12CC3CC(CC(C3)C1)C2` [compound 21], at KDM3A C251 (Q9Y4C1) (500 μm in-vitro ramos_231), the “isoTOP-ABPP ratio (reactivity profile), Q9Y4C1_C251” value is recorded as 0.7.

For the compound `COc1ccccc1OCCNC(=O)CCl` [compound 28], the “isoTOP-ABPP ratio (reactivity profile), P43403_C117” value at ZAP70 C117 (P43403) turned out to be 1.1.

In the case of `C=CC(=O)N(Cc1cccnc1)c1ccc(Oc2ccccc2)c(C(F)(F)F)c1` [compound 15], the “isoTOP-ABPP ratio (reactivity profile), P43403_C117” value at ZAP70 C117 (P43403) came to 20.0.

For the compound `CC(Br)C(=O)Nc1cc(C(F)(F)F)cc(C(F)(F)F)c1` (stereo not shown) [compound 24], the “isoTOP-ABPP ratio (reactivity profile), Q9Y4C1_C251” value at KDM3A C251 (Q9Y4C1) (500 μm in-vitro ramos) amounted to 1.3.

Take `O=C(CCl)Nc1cc(C(F)(F)F)cc(C(F)(F)F)c1` [compound 3]: the “R value (DMSO/fragment)” value was determined as 4.4 at KDM3A C251 (Q9Y4C1) (in vitro, MDA-MB-231) and 4.0 on KDM3A C251 (Q9Y4C1) (invitro, ramos).

Consider `C=CC(=O)N(c1ccccc1)C1CCCCC1` [compound 46], for which, on KDM3A C251 (Q9Y4C1) (500 μm, in-vitro_ramos_231), the “isoTOP-ABPP reactivity profile ratio, Q9Y4C1_C251” value was determined as 1.0.

The record behind these values is patent US10670605B2, “Cysteine reactive probes and uses thereof” (The Scripps Research Institute, priority 2015, dated 2020).
